“And” between values parts separate entries of the source, which are not always exact repeats. Identical values can stand only once.
Tests used:
[1] = log P determination by HPLC on reversed-phase column (C 18), EEC Directive 79/831 Annex V.A8; type: physicochemical; conditions: C 18 reversed phase, 40° C., 0.1% aqueous formic acid and acetonitrile, linear gradient 10% to 90% acetonitrile; for chromatographic logP: reversed-phase C18 HPLC column
Experimental: In table 1, the log P values were determined in accordance with EEC Directive 79/831 Annex V.A8 by HPLC (High Performance Liquid Chromatography) on a reversed-phase column (C 18), using the method described below: Temperature: 40° C.; Mobile phases: 0.1% aqueous formic acid and acetonitrile; linear gradient from 10% acetonitrile to 90% acetonitrile. Calibration was carried out using unbranched alkan-2-ones (comprising 3 to 16 carbon atoms) with known log P values (determination of the log P values by the retention times using linear interpolation between two successive alkanones). lambda-max-values were determined using UV-spectra from 200 nm to 400 nm and the peak values of the chromatographic signals.

[2] = test system: Uromyces appendiculatus; experiment: In vivo preventive test on Uromyces appendiculatus (bean rust); conditions: Table B2, dose 100 ppm, bean plants, comparison with isopropyl analogues of WO2012/059497
Experimental: EXAMPLE B: IN VIVO PREVENTIVE TEST ON UROMYCES APPENDICULATUS (BEAN RUST) Solvent: 5% by volume of Dimethyl sulfoxide • 10% by volume of Acetone Emulsifier: 1 μL of Tween® 80 per mg of active ingredient The active ingredients are made soluble and homogenized in a mixture of Dimethyl sulfoxide/Acetone//Tween® 80 and then diluted in water to the desired concentration. The young plants of bean are treated by spraying the active ingredient prepared as described above. Control plants are treated only with an aqueous solution of Acetone/Dimethyl sulfoxide/Tween® 80. After 24 hours, the plants are contaminated by spraying the leaves with an aqueous suspension of Uromyces appendiculatus spores. The contaminated bean plants are incubated for 24 hours at 20° C. and at 100% relative humidity and then for 10 days at 20° C. and at 70-80% relative humidity. The test is evaluated 11 days after the inoculation. 0% means an efficacy which corresponds to that of the control plants while an efficacy of 100% means that no disease is observed.

| SMILES | logP [1] | further results |
| --- | --- | --- |
| N#CC1(c2ccsc2CO)CC1 [Vc.03, 1-[2-(hydroxymethyl)-3-thienyl]cyclopropanecarbonitrile] | – | chromatographic logP [1]: 0.63 |
| Cn1nc(C(F)F)c(C(=S)N(Cc2cc(Cl)cnc2C2(C)CC2)C2CC2)c1F [I.23] | 3.52 | – |
| Cn1nc(C(F)F)c(C(=O)N(Cc2sccc2C2(Cl)CC2)C2CC2)c1Cl [I.14] | 3.55 | – |
| Cc1cc(C2(Cl)CC2)c(C=O)s1 [IV.02, 3-(1-chlorocyclopropyl)-5-methylthiophene-2-carbaldehyde] | – | chromatographic logP [1]: 2.75 |
| Cn1nc(C(F)F)c(C(=O)N(Cc2cc(Br)cnc2C2(C)CC2)C2CC2)c1Cl [I.07] | 3.12 | – |
| Cn1nc(C(F)F)c(C(=O)N(Cc2sccc2C2(C)CC2)C2CC2)c1Cl [I.10] | 3.85 | – |
| ClC1(c2ccsc2CNC2CC2)CC1 [IIa.02, N-{[3-(1-chlorocyclopropyl)-2-thienyl]methyl}cyclopropanamine] | – | chromatographic logP [1]: 0.87 |
| Cn1nc(C(F)F)c(C(=S)N(Cc2sccc2C2(C)CC2)C2CC2)c1F [I.28] | 4.28 | – |
| Cn1nc(C(F)F)c(C(=O)N(Cc2cc(Cl)cnc2C2(C)CC2)C2CC2)c1Cl [I.04] | 3.09 | – |
| CC1(c2ccsc2CBr)CC1 [Va1.01, 2-(bromomethyl)-3-(1-methylcyclopropyl)thiophene] | – | chromatographic logP [1]: 2.14 |
| Cc1cc(C2(C)CC2)c(CO)s1 [Vc.02, [5-methyl-3-(1-methylcyclopropyl)-2-thienyl]methanol] | – | chromatographic logP [1]: 2.52 |
| Cc1cc(C(C)C)c(CN(C(=O)c2c(C(F)F)nn(C)c2F)C2CC2)s1 [CMP1, N-cyclopropyl-3-(difluoromethyl)-5-fluoro-N-[(3-isopropyl-5-methyl-2-thienyl)methyl]-1-methyl-1H-pyrazole-4-carboxamide, reference compound] | – | Efficacy [2]: 65% |
| Cc1cc(C2(C)CC2)c(CN(C(=O)c2c(C(F)F)nn(C)c2Cl)C2CC2)s1 [I.12] | 4.27 | Efficacy [2]: 100% and 92% |
| Cn1nc(C(F)F)c(C(=O)N(Cc2sccc2C2(Cl)CC2)C2CC2)c1F [I.13] | 3.37 | – |
| Cn1nc(C(F)F)c(C(=O)N(Cc2cc(C3=CCCC3)cnc2C2(C)CC2)C2CC2)c1F [I.29] | 2.05 | – |
| Cc1cc(C2(C)CC2)c(CN(C(=O)c2c(C(F)F)nn(C)c2F)C2CC2)s1 [I.11] | 4.13 | Efficacy [2]: 100% |
| C=Cc1cnc(C2(C)CC2)c(CN(C(=O)c2c(C(F)F)nn(C)c2Cl)C2CC2)c1 [I.32] | 1.91 | – |
| Cn1nc(C(F)F)c(C(=O)N(Cc2cccnc2C2(C)CC2)C2CC2)c1Cl [I.02] | 1.41 | – |
| COC1(c2cc(C)sc2CN(C(=O)c2c(C(F)F)nn(C)c2F)C2CC2)CC1 [I.17] | 3.37 | – |
| Cn1nc(C(F)F)c(C(=O)N(Cc2cc(-c3ccccc3)cnc2C2(C)CC2)C2CC2)c1Cl [I.31] | 2.33 | – |
| Cc1cc(C2(Cl)CC2)c(CN(C(=O)c2c(C(F)F)nn(C)c2F)C2CC2)s1 [I.15, N-{[3-(1-chlorocyclopropyl)-5-methyl-2-thienyl]methyl}-N-cyclopropyl-3-(difluoromethyl)-5-fluoro-1-methyl-1H-pyrazole-4-carboxamide] | – | chromatographic logP [1]: 3.76 |
| Cc1cnc(C2(C)CC2)c(CN(C(=S)c2c(C(F)F)nn(C)c2F)C2CC2)c1 [I.22] | 1.59 | – |
| Cc1cc(C2(Cl)CC2)c(CN(C(=O)c2c(C(F)F)nn(C)c2Cl)C2CC2)s1 [I.16] | 3.92 | – |

| SMILES | logP [1] | further results |
| --- | --- | --- |
| Cn1nc(C(F)F)c(C(=O)N(Cc2sc(Br)cc2C2(Cl)CC2)C2CC2)c1F [I.18] | 4.15 | – |
| CC1(c2ccsc2CO)CC1 [Vc.01, [3-(1-methylcyclopropyl)-2-thienyl]methanol] | – | chromatographic logP [1]: 2.09 |
| Cc1cnc(C2(C)CC2)c(CN(C(=O)c2c(C(F)F)nn(C)c2Cl)C2CC2)c1 [I.06] | 1.54 | – |
| Cn1nc(C(F)F)c(C(=O)N(Cc2cc(Br)cnc2C2(C)CC2)C2CC2)c1F [I.08] | 2.91 | – |
| CC1(c2ccsc2CNC2CC2)CC1 [IIa.01, N-{[3-(1-methylcyclopropyl)-2-thienyl]methyl}cyclopropanamine] | – | chromatographic logP [1]: 0.7 |
| Cc1cnc(C2(C)CC2)c(CN(C(=O)c2c(C(F)F)nn(C)c2F)C2CC2)c1 [I.05] | 1.42 | – |
| Cc1cnc(C2(C)CC2)c(CN(C(=S)c2c(C(F)F)nn(C)c2Cl)C2CC2)c1 [I.21] | 1.69 | – |
| Cc1cc(C(C)C)c(CN(C(=O)c2c(C(F)F)nn(C)c2Cl)C2CC2)s1 [CMP2, 5-chloro-N-cyclopropyl-3-(difluoromethyl)-N-[(3-isopropyl-5-methyl-2-thienyl)methyl]-1-methyl-1H-pyrazole-4-carboxamide, reference compound] | – | Efficacy [2]: 0% |
| Cn1nc(C(F)F)c(C(=O)N(Cc2cc(Cl)cnc2C2(C)CC2)C2CC2)c1F [I.03] | 2.88 | – |
| Cn1nc(C(F)F)c(C(=O)N(Cc2sccc2C2(C)CC2)C2CC2)c1F [I.09] | 3.70 | – |
| Cn1nc(C(F)F)c(C(=S)N(Cc2sccc2C2(C)CC2)C2CC2)c1Cl [I.27] | 4.44 | – |
| Cn1nc(C(F)F)c(C(=S)N(Cc2cc(Cl)cnc2C2(C)CC2)C2CC2)c1Cl [I.24] | 3.71 | – |
| Cc1cc(C2(Cl)CC2)c(CN(C(=S)c2c(C(F)F)nn(C)c2Cl)C2CC2)s1 [I.26] | 4.56 | – |
| COC1(c2cc(C)sc2CNC2CC2)CC1 [IIa.04, N-{[3-(1-methoxycyclopropyl)-5-methyl-2-thienyl]methyl}cyclopropanamine] | – | chromatographic logP [1]: 1.07 |
| Cn1nc(C(F)F)c(C(=S)N(Cc2sccc2C2(Cl)CC2)C2CC2)c1Cl [I.25] | 4.19 | – |
| Cc1cc(C2(Cl)CC2)c(CNC2CC2)s1 [IIa.03, N-{[3-(1-chlorocyclopropyl)-5-methyl-2-thienyl]methyl}cyclopropanamine] | – | chromatographic logP [1]: 1.2 |
| Cc1cc(C2(C)CC2)c(CBr)s1 [Va1.02, 2-(bromomethyl)-5-methyl-3-(1-methylcyclopropyl)thiophene] | – | chromatographic logP [1]: 2.54 |
| Cn1nc(C(F)F)c(C(=O)N(Cc2cccnc2C2(C)CC2)C2CC2)c1F [I.01] | 1.28 | – |
| O=Cc1sccc1C1(Cl)CC1 [IV.01, 3-(1-chlorocyclopropyl)thiophene-2-carbaldehyde] | – | chromatographic logP [1]: 2.41 |
| Cn1nc(C(F)F)c(C(=S)N(Cc2cccnc2C2(C)CC2)C2CC2)c1F [I.20] | 1.53 | – |
| Cn1nc(C(F)F)c(C(=O)N(Cc2cc(-c3ccsc3)cnc2C2(C)CC2)C2CC2)c1F [I.30] | 2.12 | – |
| Cn1nc(C(F)F)c(C(=S)N(Cc2cccnc2C2(C)CC2)C2CC2)c1Cl [I.19] | 1.63 | – |
